Experiments:
[1] = target: T1, rat-DOR (Rattus norvegicus, UniProt P33533); test: Radioligand competition binding, [3H]-DPN, HEK293 membranes, DOR; details: [3H]-DPN displacement; means ± SEM of three experiments in duplicate; read-out: Ki (μM) ± SEM DOR
T1 construct: expressed in transfected cells
Description: (§1) All synthesized compounds were tested in vitro by radioligand competition binding using [^3H]-diprenorphine ([^3H]-DPN) to measure the affinity for opioid receptor subtypes in membranes from HEK293 cells stably expressing either MOR, DOR, or KOR, as previously described.
(§2) Confluent monolayers of HEK293 (human embryonic kidney 293) cells stably expressing rat-MOR, rat-DOR, or human-KOR were harvested, collected by centrifugation at 1500 rpm for 5 min, and washed once with phosphate-buffered saline (PBS) at pH 7.5. Membranes from cell pellets were carried out as described by Georgoussi and Zioudrou (1993) and Papakonstantinou et al. (2015). Briefly, cell pellets were resuspended in ice-cold membrane buffer (10 mM Tris-HCl, pH 7.5 and 0.1 mM EDTA), homogenized, and centrifuged at 2,000 g for 3 min at 4 °C. Supernatants were further centrifuged at 45,000 rpm for 30 min at 4 °C. The membrane pellet was resuspended in ice-cold membrane buffer at a protein concentration of approximately 1 mg/mL and stored in aliquots at −70 °C. Protein concentration was determined according to Bradford assay.
(§3) In the experiments designed to define compound affinity and selectivity for MOR, DOR, and KOR, membranes expressing each of these opioid receptors ([…]) were incubated at 30 °C for 45 min in buffer containing 50 mM Tris-HCl, pH 7.5, 100 mM NaCl, and 10 mM MgCl2 as described by Georgoussi et al. […] The ability of compounds 10–16 to displace [^3H]-DPN (3.75 nM) binding to the opioid receptors was assessed as described by Morou And Georgoussi (2005). Non-specific binding was measured in the presence of […] Naloxone. The reaction was stopped by rapid filtration and three washes in ice-cold 50 mM Tris-HCl, pH 7.4, through GF/C filters (Whatman, Maidstone, UK) using an automated cell harvester (Brandel Inc., Gaithersburg, MD, USA). The radioactivity was measured by liquid scintillation counting (Liquid Scintillation Analyzer, Packard).
(§4) Analysis of the binding data was performed using the Origin 7.5 software (OriginLab Corporation, Northampton, MA, USA). In calcium mobilization experiments, data were analyzed by non-linear curve fitting equation, using GraphPad 5.0 software. […] Ligand efficacy was expressed as intrinsic activity (α), calculated as the ratio between the Emax of the ligand and that of the respective standards. Calcium mobilization data were expressed as FIU (fluorescence intensity units) in percent, over the baseline. Agonist potencies are given as pEC50 (the negative logarithm to base 10 of the molar concentration of an agonist that produces 50% of the maximal possible effect, Emax). Concentration response curves to agonists were fitted with the following equation: Effect = baseline + (Emax − baseline)/(1+10^(LogEC50 − X) ∗ HillSlope) where X is the agonist concentration.

[2] = test system: cells expressing the GαqG66Di5 chimeric protein, but not DOR; test: Calcium mobilization in cells expressing the GαqG66Di5 chimeric protein, but not DOR; format: cell-based; details: up to 10 μM; data not shown
Excerpt: The LP1 functional profile at DOR, previously in vitro detected by adenylyl cyclase, and the [^35S]GTPγS binding assays was controversial. […] Similar findings with DOR spontaneous activity and effects of DOR antagonists have been previously described. This effect was reversed at higher LP1 concentrations. These [^35S]GTPγS binding results reveal the role of LP1 as a DOR antagonist ligand. […] The DOR antagonist profile of LP1 was also detected in vivo by rat tail flick test. […] The remaining LP1 derivatives 11–16 were not able to stimulate calcium mobilization in CHO^DOR cells stably expressing the GαqG66Di5 protein. […]
CHO cells, expressing human opioid receptors and the Gαqi5 protein, and CHODOR, expressing the GαqG66Di5 protein, were maintained in culture medium consisting of Dulbecco minimum essential medium (DMEM) and Ham F-12 (1:1) (50/50) supplemented with 10% fetal calf serum (FCS), L-glutamine (2 mM), geneticin (200 μg/mL; G418), hygromycin B (100 μg/mL) at 37 °C in 5% CO2 humidified air. […] After placing both plates (cell culture and compound plate) into the FlexStation II (Molecular Device, Union City, San Jose, CA 94587, USA), fluorescence changes were measured at room temperature. […] Maximum change in fluorescence, expressed in percent of baseline fluorescence, was used to determine agonist response.

[3] = test system: DOR; set-up: method as in PMID 22100511; details: 10 nM; cited from earlier work
[4] = target: human-KOR (Homo sapiens, UniProt P41145); test: Radioligand competition binding, [3H]-DPN, HEK293 membranes, KOR; set-up: expressed in transfected cells; details: [3H]-DPN displacement; means ± SEM of three experiments in duplicate; read-out: Ki (μM) ± SEM KOR
Description: as §1, §2, §3, §4

**Q.** For `C[C@H]1[C@H]2Cc3ccc(O)cc3[C@]1(C)CCN2CCC(=O)Nc1ccccc1` [LP1, 3-[(2R,6R,11R)-8-hydroxy-6,11-dimethyl-1,4,5,6-tetrahydro-2,6-methano-3-benzazocin-3(2H)-yl]-N-phenylpropanamide, reference compound], which Ki [1] is on record?
**A.** Its Ki is 0.033 ± 0.02 µM.

**Q.** And the “calcium mobilization in cells without DOR” value [2]?
**A.** Its value is “completely inactive”.

**Q.** What about the “inhibition of [35S]GTPγS binding” value [3] of the same compound?
**A.** The value was 30%.

**Q.** And the Ki [4]?
**A.** The Ki was 7.5 ± 0.015 µM.
